According to PubChem BioAssay (NCI):
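Cells were grown in 96-well plates and exposed to each compound for 48 hours at five concentrations; endpoints were interpolated linearly between bracketing concentrations, or set to the highest concentration if not reached. GI50: concentration for 50% inhibition of growth. Definition used: TGI = concentration required for complete inhibition of growth.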

Assays:
Experiment in all cases: DTP human tumour cell line panel, 48 h
NCI-H23 lung = system: NCI-H23 lung
CCRF-CEM leukemia = system: CCRF-CEM leukemia
SK-MEL-2 melanoma = system: SK-MEL-2 melanoma
DU-145 prostate = system: DU-145 prostate
LOX IMVI melanoma = system: LOX IMVI melanoma
UO-31 renal = system: UO-31 renal
UACC-62 melanoma = system: UACC-62 melanoma
HCT-116 colon = system: HCT-116 colon
MOLT-4 leukemia = system: MOLT-4 leukemia
IGROV1 ovarian = system: IGROV1 ovarian
BT-549 breast = system: BT-549 breast
OVCAR-5 ovarian = system: OVCAR-5 ovarian
HT29 colon = system: HT29 colon
UACC-257 melanoma = system: UACC-257 melanoma
T-47D breast = system: T-47D breast
RXF 393 renal = system: RXF 393 renal
MDA-MB-468 breast = system: MDA-MB-468 breast
PC-3 prostate = system: PC-3 prostate
SK-OV-3 ovarian = system: SK-OV-3 ovarian
SN12C renal = system: SN12C renal
SK-MEL-5 melanoma = system: SK-MEL-5 melanoma
OVCAR-3 ovarian = system: OVCAR-3 ovarian
NCI-H460 lung = system: NCI-H460 lung
U251 CNS = system: U251 CNS
ACHN renal = system: ACHN renal
SK-MEL-28 melanoma = system: SK-MEL-28 melanoma
SF-268 CNS = system: SF-268 CNS
SNB-19 CNS = system: SNB-19 CNS
OVCAR-4 ovarian = system: OVCAR-4 ovarian
HOP-92 NSCLC = system: HOP-92 NSCLC
MALME-3M melanoma = system: MALME-3M melanoma
MDA-MB-231 breast = system: MDA-MB-231 breast
HCT-15 colon = system: HCT-15 colon
MCF7 breast = system: MCF7 breast
OVCAR-8 ovarian = system: OVCAR-8 ovarian
NCI/ADR-RES ovarian = system: NCI/ADR-RES ovarian
SF-295 CNS = system: SF-295 CNS
A549 NSCLC = system: A549 NSCLC
HOP-62 NSCLC = system: HOP-62 NSCLC
EKVX NSCLC = system: EKVX NSCLC
NCI-H226 lung = system: NCI-H226 lung
HS 578T breast = system: HS 578T breast
CAKI-1 renal = system: CAKI-1 renal
K-562 leukemia = system: K-562 leukemia
HL-60(TB) leukemia = system: HL-60(TB) leukemia
SF-539 CNS = system: SF-539 CNS
RPMI-8226 leukemia = system: RPMI-8226 leukemia
MDA-MB-435 = system: MDA-MB-435
KM12 colon = system: KM12 colon
786-0 renal = system: 786-0 renal
HCC-2998 colon = system: HCC-2998 colon
SW-620 colon = system: SW-620 colon
M14 melanoma = system: M14 melanoma
SNB-75 CNS = system: SNB-75 CNS
A498 renal = system: A498 renal
NCI-H522 lung = system: NCI-H522 lung
COLO 205 colon = system: COLO 205 colon
TK-10 renal = system: TK-10 renal

For `Cn1cc(NC(=O)c2cc(NC(=O)c3ccc(C#Cc4ccccc4)cc3)cn2C)cc1C(=O)NCCCN1CCOCC1`, the GI50 (NCI-H23 lung) was 14.3 µM, the TGI (NCI-H23 lung) was > 32.5 µM and the GI50 (CCRF-CEM leukemia) was 6.76 µM. For the same molecule, the TGI (CCRF-CEM leukemia) was > 32.5 µM, the GI50 (SK-MEL-2 melanoma) was 6.15 µM and the TGI (SK-MEL-2 melanoma) was 14.4 µM. The GI50 (DU-145 prostate) was 11.6 µM, the TGI (DU-145 prostate) was > 32.5 µM and the GI50 (LOX IMVI melanoma) was 4.94 µM. For the same molecule, the TGI (LOX IMVI melanoma) was 9.38 µM, the GI50 (UO-31 renal) was 14 µM and the TGI (UO-31 renal) was > 32.5 µM. For the same molecule, the GI50 (UACC-62 melanoma) was 11 µM, the TGI (UACC-62 melanoma) was > 32.5 µM and the GI50 (HCT-116 colon) was 8.36 µM. For the same molecule, the TGI (HCT-116 colon) was > 32.5 µM, the GI50 (MOLT-4 leukemia) was 8.41 µM and the TGI (MOLT-4 leukemia) was > 32.5 µM. The GI50 (IGROV1 ovarian) was > 32.5 µM, the TGI (IGROV1 ovarian) was > 32.5 µM and the GI50 (BT-549 breast) was 5.22 µM. The TGI (BT-549 breast) was 20 µM, the GI50 (OVCAR-5 ovarian) was > 32.5 µM and the TGI (OVCAR-5 ovarian) was > 32.5 µM. It also gave a GI50 (HT29 colon) of 6.62 µM, a TGI (HT29 colon) of 22.9 µM and a GI50 (UACC-257 melanoma) of 18.9 µM. The TGI (UACC-257 melanoma) was > 32.5 µM, the GI50 (T-47D breast) was 5.88 µM and the TGI (T-47D breast) was > 32.5 µM. For the same molecule, the GI50 (RXF 393 renal) was 2.55 µM, the TGI (RXF 393 renal) was 21.1 µM and the GI50 (MDA-MB-468 breast) was 7.75 µM. For the same molecule, the TGI (MDA-MB-468 breast) was 25.5 µM, the GI50 (PC-3 prostate) was 12.2 µM and the TGI (PC-3 prostate) was > 32.5 µM. For the same molecule, the GI50 (SK-OV-3 ovarian) was > 32.5 µM, the TGI (SK-OV-3 ovarian) was > 32.5 µM and the GI50 (SN12C renal) was 7.08 µM. For the same molecule, the TGI (SN12C renal) was > 32.5 µM, the GI50 (SK-MEL-5 melanoma) was 11.3 µM and the TGI (SK-MEL-5 melanoma) was > 32.5 µM. The GI50 (OVCAR-3 ovarian) was 6.21 µM, the TGI (OVCAR-3 ovarian) was > 32.5 µM and the GI50 (NCI-H460 lung) was 10.1 µM. For the same molecule, the TGI (NCI-H460 lung) was > 32.5 µM, the GI50 (U251 CNS) was 9.01 µM and the TGI (U251 CNS) was > 32.5 µM. For the same molecule, the GI50 (ACHN renal) was 16.4 µM, the TGI (ACHN renal) was > 32.5 µM and the GI50 (SK-MEL-28 melanoma) was > 32.5 µM. For the same molecule, the TGI (SK-MEL-28 melanoma) was > 32.5 µM, the GI50 (SF-268 CNS) was 12.2 µM and the TGI (SF-268 CNS) was > 32.5 µM. The GI50 (SNB-19 CNS) was > 32.5 µM, the TGI (SNB-19 CNS) was > 32.5 µM and the GI50 (OVCAR-4 ovarian) was 25.6 µM. For the same molecule, the TGI (OVCAR-4 ovarian) was > 32.5 µM, the GI50 (HOP-92 NSCLC) was 5.05 µM and the TGI (HOP-92 NSCLC) was 20.4 µM. For the same molecule, the GI50 (MALME-3M melanoma) was 13.3 µM, the TGI (MALME-3M melanoma) was > 32.5 µM and the GI50 (MDA-MB-231 breast) was 10.3 µM. The TGI (MDA-MB-231 breast) was > 32.5 µM, the GI50 (HCT-15 colon) was 5.47 µM and the TGI (HCT-15 colon) was 13.7 µM. It also gave a GI50 (MCF7 breast) of 6.15 µM, a TGI (MCF7 breast) of 30.8 µM and a GI50 (OVCAR-8 ovarian) of 6.14 µM. The TGI (OVCAR-8 ovarian) was 20.2 µM, the GI50 (NCI/ADR-RES ovarian) was 7.66 µM and the TGI (NCI/ADR-RES ovarian) was 23.8 µM. The GI50 (SF-295 CNS) was 12.6 µM, the TGI (SF-295 CNS) was > 32.5 µM and the GI50 (A549 NSCLC) was 20 µM. The TGI (A549 NSCLC) was > 32.5 µM, the GI50 (HOP-62 NSCLC) was 18 µM and the TGI (HOP-62 NSCLC) was > 32.5 µM. For the same molecule, the GI50 (EKVX NSCLC) was 10.6 µM, the TGI (EKVX NSCLC) was > 32.5 µM and the GI50 (NCI-H226 lung) was 16.6 µM. For the same molecule, the TGI (NCI-H226 lung) was > 32.5 µM, the GI50 (HS 578T breast) was 7.04 µM and the TGI (HS 578T breast) was > 32.5 µM. The GI50 (CAKI-1 renal) was 17.5 µM, the TGI (CAKI-1 renal) was > 32.5 µM and the GI50 (K-562 leukemia) was 8.4 µM. The TGI (K-562 leukemia) was > 32.5 µM, the GI50 (HL-60(TB) leukemia) was 5.19 µM and the TGI (HL-60(TB) leukemia) was 32.3 µM. The GI50 (SF-539 CNS) was 6.37 µM, the TGI (SF-539 CNS) was 14.5 µM and the GI50 (RPMI-8226 leukemia) was 5.61 µM. For the same molecule, the TGI (RPMI-8226 leukemia) was 32.3 µM, the GI50 (MDA-MB-435) was 9.91 µM and the TGI (MDA-MB-435) was > 32.5 µM. For the same molecule, the GI50 (KM12 colon) was 11.2 µM, the TGI (KM12 colon) was > 32.5 µM and the GI50 (786-0 renal) was 9.11 µM. For the same molecule, the TGI (786-0 renal) was 29.5 µM, the GI50 (HCC-2998 colon) was 11.9 µM and the TGI (HCC-2998 colon) was > 32.5 µM. The GI50 (SW-620 colon) was 9.25 µM, the TGI (SW-620 colon) was > 32.5 µM and the GI50 (M14 melanoma) was 12.6 µM. The TGI (M14 melanoma) was > 32.5 µM, the GI50 (SNB-75 CNS) was 6.71 µM and the TGI (SNB-75 CNS) was > 32.5 µM. The GI50 (A498 renal) was > 32.5 µM, the TGI (A498 renal) was > 32.5 µM and the GI50 (NCI-H522 lung) was 8.72 µM. The TGI (NCI-H522 lung) was > 32.5 µM, the GI50 (COLO 205 colon) was > 32.5 µM and the TGI (COLO 205 colon) was > 32.5 µM. The GI50 (TK-10 renal) was > 32.5 µM and the TGI (TK-10 renal) was > 32.5 µM.
